Measured values reported in patent publication US20060194814A1, “Benzamide compounds” (priority 2003, published 2006).
Where a name gives a salt, the structure may show the parent alone.

Tested on: steroidogenesis acute regulatory protein (StAR)
Experiment: Immunoblot of StAR protein in Y1 cells
Format: cell-based, mouse
Conditions: 1 μM procaine, 48 hour treatment
Protocol: At the end of the treatment protocol described above, Y1 cells at 90% confluency were washed 2 times with PBS, sonicated 15 seconds in extraction buffer and centrifuged at 18,500 g for 15 minutes at 4° C. Pellets were resuspended in ice-cold lysis buffer (1% Nonidet 40 in extraction buffer), sonicated briefly, and incubated on ice for 1 hour. After centrifugation (22,500 g×30 min, 4° C.), the supernatant was mixed in sample buffer 6× (0.27 M SDS, 0.6 M dithiothreitol, 0.18 M bromphenol blue in 7 ml of 0.5 M Tris-HCl, pH 6.8, and 3 ml glycerol) and boiled for 5 minutes. Proteins were subjected to SDS-PAGE (4-20% gradient SDS polyacrylamide gel) and electrophoretically transferred onto nitrocellulose membranes. The transblot sheets were blocked with 5% non fat dry milk in 25 mM Tris HCl, pH 7.5, 150 mM NaCl, and 0.1% Tween 20 overnight at 4° C. Membranes were then incubated with appropriately diluted primary antibodies 1:800 for anti-P-450scc (Research Diagnostics Inc. Flanders, N.J.) and 1:200 for anti-StAR (Amri et al., 1996), and the reaction was detected by a peroxidase-conjugated secondary antibody (Santa Cruz Biotechnology, Santa Cruz, Calif.) and enhanced chemiluminescence (Amersham Life, Arlington Heights, Ill.). The densities of the appropriate bands were determined using the OptiQuant Acquisition & Analysis software (Packard BioScience).

CCN(CC)CCOC(=O)c1ccc(N)cc1 [SP01, procaine HCl]
effect on levels of the mature 30 kDa StAR protein: did not affect
